This is an account of results in the METLIN SMRT retention time set (Domingo-Almenara et al. 2019).

Each structure is given as a SMILES string.

The series is described as follows: gradient 5% acetonitrile 3 min, to 50% in 2 min, to 85% in 15 min, held 3 min, 100 µL/min. The conditions noted are these: column: Zorbax Extend-C18 2.1 x 50 mm; eluents: water / acetonitrile, 0.1% formic acid. In short, it runs like this:
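Retention times of pure standards were taken from adduct peaks that were selected by computer and manually inspected. Over 3 months, mixtures of ~100 molecules were run by HPLC–quadrupole time-of-flight mass spectrometry in positive and negative ionization mode. The Zorbax Extend-C18 column (2.1 × 50 mm, 1.8 μm) ran at 100 μL/min in water and acetonitrile, each containing 0.1% formic acid, with 40 μL dead volume and 900 μL dwell volume.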
`c1ccc(OCc2nc(-c3ccc(-n4ccnc4)nc3)no2)cc1` yielded an RP-LC retention time of 689 s.

In turn, `Cc1nc(-c2ccc(S(=O)(=O)N3CCN(c4ccc(N5CCOCC5)nn4)CC3)cc2)co1` came in with an RP-LC retention time of 644 s.

The compound `O=C(C1CCCO1)N1CCCn2nc(-c3cccs3)cc2C1` (centres undefined) registered an RP-LC retention time of 689 s.

`O=C(NCc1ccc(F)cc1)C1CCCN(c2ncnc3c2nc2n3CCCCC2)C1` (centres undefined) came in with an RP-LC retention time of 759 s.

Regarding `O=C(Cn1cc(-c2ccccc2)c(N2CCOCC2)n1)N1CCN(c2ccccc2F)CC1`, the RP-LC retention time came to 978 s.

Regarding `CC(C)Oc1ccc(C(=O)N(Cc2ccc(Br)o2)C2CCS(=O)(=O)C2)cc1` (centres undefined), the RP-LC retention time is 963 s.

Regarding `COc1ccc(N2CCN(C(=O)c3sc4cccc(F)c4c3OC)CC2)cc1`, the RP-LC retention time stood at 998 s.

In turn, `O=C(NC1CCCCC1)C1CCN(S(=O)(=O)c2ccc(-c3noc(C4CC4)n3)cc2)CC1` showed an RP-LC retention time of 928 s.

`CC(C)CCNC(=O)N1CCC(c2cc(N)on2)CC1` yielded an RP-LC retention time of 659 s.

For the compound `Fc1ccccc1-c1noc(-c2nc(-c3cnccn3)no2)n1`, the RP-LC retention time is 877 s.

Compound `Cc1oc(C2CCN(C(=O)C3CCN(S(=O)(=O)N4CCOCC4)CC3)CC2)nc1C(=O)N1CCCC1` displayed an RP-LC retention time of 677 s.

In turn, `CC(C)CCN1CCC(N2CCN(S(=O)(=O)Cc3ccccc3)CC2)C1=O` (centres undefined) had an RP-LC retention time of 646 s.

In the case of `Cc1cccc(N2CCN(C(=O)COc3ccc(NC(=O)C4CC4)cn3)CC2)c1`, the RP-LC retention time was found to be 754 s.

In turn, `CC(C)(C)C(=O)NCc1cccnc1-c1ccc(F)cc1` yielded an RP-LC retention time of 614 s.

In the case of `CN(C)S(=O)(=O)c1ccc2c(c1)N(CC(=O)NCc1cccc(F)c1)C(=O)C1CCCCN21` (centres undefined), the RP-LC retention time came to 900 s.

`COc1ccc(-n2cc(C(=O)Oc3cccnc3)c3ccccc3c2=O)cc1` had an RP-LC retention time of 911 s.

In turn, `Cc1cc(NC(=O)c2cc(-c3cccs3)[nH]n2)sn1` had an RP-LC retention time of 672 s.

`CC1=C(c2cccc(Cl)c2)S(=O)(=O)N=C1N1CCC(NC(=O)c2ccoc2)CC1` showed an RP-LC retention time of 799 s.

On to `CCOc1ccccc1CNC(=O)C1CCN(S(=O)(=O)c2ccc3c(c2)sc(=O)n3C)CC1`, for which the RP-LC retention time turned out to be 878 s.

Take `O=C(c1cc2ccccc2[nH]1)N1CCC(Cn2c(C(F)(F)F)nc3ccccc32)CC1`: the RP-LC retention time was determined as 881 s.

With `COc1ccc(Cl)c(Nc2nc3ccccc3nc2NS(=O)(=O)c2cccc(NC(=O)C(C)(C)N)c2)c1`, the RP-LC retention time stood at 879 s.

As for `O=C(Cc1ccc([N+](=O)[O-])cc1)NC1CC(=O)N(c2ccc(Cl)cc2)C1` (centres undefined), the RP-LC retention time was 760 s.

`COc1cc(C(=O)N2CCCN(c3cc(-c4ccc(Br)cc4)[nH]n3)CC2)cc(OC)c1OC` had an RP-LC retention time of 768 s.

On to `CC(C)Cn1cc(S(=O)(=O)N2CCN(c3cccc(Cl)c3)CC2)c2cccnc21`, for which the RP-LC retention time stood at 1250 s.

`COC(=O)c1ccc(NC(=O)N2CC(Oc3cccc(-c4nc(C)no4)c3)C2)cc1`: the RP-LC retention time was 883 s.

On to `CCc1nn2c(CNC(=O)c3cccc(Br)c3)c(C)nc2s1`, for which the RP-LC retention time turned out to be 686 s.

As for `Cc1ccc(-c2noc(Cn3ccn(Cc4ccc(Cl)cc4)c(=O)c3=O)n2)cc1`, the RP-LC retention time stood at 951 s.

Turning to `CCOC(=O)c1c(CN2CCN(CC#N)CC2)n(C)c2cc(Br)c(OC(C)=O)cc12`, the RP-LC retention time is 706 s.

For `COc1cc(NC(=O)c2cc(C)n3nc(C)cc3n2)cc(OC)c1OC`, the RP-LC retention time came out at 847 s.

Turning to `COCc1c(C(=O)O)nnn1Cc1ccc(OC)c(F)c1`, the RP-LC retention time is 658 s.

`CCCn1cc(CCNS(=O)(=O)c2c(C)c(C)cc(C)c2C)c2cccnc21` came in with an RP-LC retention time of 1060 s.

Compound `CC(Oc1cccc(Cl)c1)c1nc(-c2ccc3c(c2)nnn3CCC(=O)N2CCCC2)no1` (centres undefined) returned an RP-LC retention time of 1010 s.

`CCOc1ccc(CC(=O)NC2CCN(c3cc(-c4ccc(F)cc4)[nH]n3)C2)cc1OCC` (centres undefined): the RP-LC retention time was 679 s.

Take `CSc1ccc(CNC(=O)c2cn3cccc(C)c3n2)cc1`: the RP-LC retention time was determined as 755 s.

Compound `Nc1ccc(C(=O)Nc2ccc(Nc3ccncc3)cc2)cc1` registered an RP-LC retention time of 602 s.

The compound `O=C(CSc1nnc(CCN2CCOCC2)o1)Nc1ccc(F)c(Cl)c1` showed an RP-LC retention time of 571 s.

In turn, `O=C(CSc1nnc2c(=O)n(-c3ccccc3)ccn12)c1ccc(Br)cc1` showed an RP-LC retention time of 881 s.

`COc1cccc(-n2nnc(-c3nsc(Nc4ccc(OC)c(Cl)c4)n3)c2C)c1` came in with an RP-LC retention time of 1020 s.

In the case of `O=C(NCCc1csc(-c2ccccc2)n1)C1CCN(C(=O)Cc2cccs2)CC1`, the RP-LC retention time was determined as 794 s.

Compound `O=C(NCc1ccccc1Cl)c1ccc2c(c1)CCN2C(=O)C1CC1` came in with an RP-LC retention time of 856 s.

As to `Cc1oc(-c2[nH]ncc2C(=O)N2CCCC2)cc1S(=O)(=O)NCc1ccc(F)cc1`, the RP-LC retention time amounted to 709 s.

The compound `Cc1ccc2c(Nc3cccc(Cl)c3)c(C(=O)N3CCOCC3)cnc2n1` yielded an RP-LC retention time of 606 s.

Take `CCc1ccccc1S(=O)(=O)N1C[C@H](F)C[C@@H]1C(=O)N1CCOCC1`: the RP-LC retention time was determined as 740 s.

Take `O=C(NCC(F)(F)F)C1CCN(C(=O)c2c(F)cccc2Cl)CC1`: the RP-LC retention time amounted to 686 s.

As to `Cc1noc2nc(CCC(=O)NCCCc3ccccc3)nc(N3CCOCC3)c12`, the RP-LC retention time is 760 s.

Consider `CC1=C(c2ccc(C)cc2)S(=O)(=O)N=C1N1CCC(NC(=O)Cc2ccsc2)CC1`, for which the RP-LC retention time worked out at 867 s.

On to `O=C(Cn1nc2c3cc(-c4ccc(Cl)cc4)nn3ccn2c1=O)NC1CCCC1`, for which the RP-LC retention time turned out to be 1110 s.

Turning to `O=C(CCS(=O)(=O)c1ccccc1)N1CC(c2nc(-c3cnccn3)no2)C1`, the RP-LC retention time was 606 s.

The compound `Cc1nc(-c2ccccc2)sc1CC(=O)NCCC1=CCCCC1` came in with an RP-LC retention time of 947 s.

In turn, `COc1ccc(-c2cc3nc(C)cc(Nc4ccc(C(N)=O)cc4)n3n2)cc1OC` gave an RP-LC retention time of 586 s.

Take `Cc1cc(-n2nnc(C(=O)O)c2C)ccc1F`: the RP-LC retention time was 705 s.

The compound `Cc1cccc(NC(=O)CN2CCN(Cc3ccc(F)cc3)C(=O)C2=O)c1C` yielded an RP-LC retention time of 732 s.

`CCn1c(=O)c(C(=O)NC2CC2)nc2cc(C)c(C)cc21`: the RP-LC retention time was found to be 887 s.

On to `COc1ccc(-c2noc(C3CCCN3C(=O)c3cccc(OC)c3)n2)cc1` (centres undefined), for which the RP-LC retention time is 937 s.

In the case of `O=S(=O)(Nc1ccc(N2CCOCC2)cc1)C1CC1`, the RP-LC retention time was determined as 623 s.

`Clc1ccc(Nc2c(-c3cccc(Cl)c3)nc3ccc(Cl)cn23)cc1` showed an RP-LC retention time of 1140 s.

For `COCCNCc1c(C(=O)O)c(C)n(Cc2ccc(Cl)cc2)c1C`, the RP-LC retention time is 704 s.

In turn, `Cc1ccc(N2CC(c3noc(-c4cccc(C)c4)n3)CC2=O)cc1` (centres undefined) gave an RP-LC retention time of 1090 s.

As to `COc1ccccc1NS(=O)(=O)c1ccc2c(c1)CCCC(=O)N2`, the RP-LC retention time worked out at 716 s.
